Our source for the IC50 values is patent publication US10660877B2 (BRISTOL-MYERS SQUIBB COMPANY, priority 2016, dated 2020).

The target in one assay is human TLR9 (Homo sapiens (Human), UniProt Q9NR96). The assay can be described thus: TLR9 inhibition reporter assay (HEK-Blue cells, SEAP reporter, ODN2006 stimulation).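 Note: compounds tested over 0.05 nM to 50 µM, 22 h incubation, inhibition taken as SEAP signal drop from agonist plus DMSO wells toward a known inhibitor control.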
The next assay has as its target human TLR8 (Homo sapiens (Human), UniProt Q9NR97). The assay can be described thus: TLR8 inhibition reporter assay (HEK-Blue cells, SEAP reporter, R848 stimulation).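 Note: compounds tested from 0.05 nM to 50 µM, 22 h at 37 °C, SEAP measured with HEK-Blue Detection, inhibition relative to agonist plus DMSO versus a known inhibitor.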
A further assay deals with human TLR7 (Homo sapiens (Human), UniProt Q9NYK1). The assay can be described thus: TLR7 inhibition reporter assay (HEK-Blue cells, SEAP reporter, gardiquimod stimulation). The assay is classed as cell-based.
Chain of human TLR7 (Q9NYK1 27-1049): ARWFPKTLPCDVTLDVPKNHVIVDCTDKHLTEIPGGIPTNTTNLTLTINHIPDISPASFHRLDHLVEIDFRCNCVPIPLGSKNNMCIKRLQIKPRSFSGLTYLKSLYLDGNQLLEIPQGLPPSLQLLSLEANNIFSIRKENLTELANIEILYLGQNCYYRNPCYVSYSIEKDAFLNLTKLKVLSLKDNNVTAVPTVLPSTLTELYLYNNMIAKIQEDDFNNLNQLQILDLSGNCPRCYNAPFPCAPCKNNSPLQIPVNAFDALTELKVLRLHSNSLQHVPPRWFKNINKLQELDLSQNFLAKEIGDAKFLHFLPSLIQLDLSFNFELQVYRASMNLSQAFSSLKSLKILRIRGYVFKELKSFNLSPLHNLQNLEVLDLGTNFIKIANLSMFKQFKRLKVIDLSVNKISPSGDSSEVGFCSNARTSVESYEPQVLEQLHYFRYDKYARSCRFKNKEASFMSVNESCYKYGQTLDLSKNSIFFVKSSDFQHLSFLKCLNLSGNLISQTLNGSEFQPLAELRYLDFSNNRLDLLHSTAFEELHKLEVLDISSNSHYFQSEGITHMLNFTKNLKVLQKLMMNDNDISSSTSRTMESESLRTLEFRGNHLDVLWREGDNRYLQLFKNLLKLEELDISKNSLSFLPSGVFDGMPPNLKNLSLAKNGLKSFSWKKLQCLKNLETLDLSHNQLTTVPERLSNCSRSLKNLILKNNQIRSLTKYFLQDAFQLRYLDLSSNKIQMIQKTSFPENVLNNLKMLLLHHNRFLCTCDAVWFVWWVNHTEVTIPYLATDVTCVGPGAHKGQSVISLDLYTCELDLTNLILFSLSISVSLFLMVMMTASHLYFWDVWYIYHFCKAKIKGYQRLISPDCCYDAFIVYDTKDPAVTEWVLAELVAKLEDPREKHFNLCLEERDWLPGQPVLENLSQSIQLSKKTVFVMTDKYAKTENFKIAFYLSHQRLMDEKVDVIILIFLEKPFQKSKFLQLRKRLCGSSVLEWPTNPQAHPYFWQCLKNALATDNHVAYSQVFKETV
[1] abbreviates: read-out: TLR9 IC50, HEK-Blue cells overexpressing human TLR9, ODN2006 5 nM.
Where [2] appears, read: read-out: TLR8 IC50, HEK-Blue cells overexpressing human TLR8, R848 15.9 μM.
Where [3] appears, read: HEK-Blue cells overexpressing human TLR7, gardiquimod 7.5 μM.
[4] abbreviates: read-out: TLR9 IC50, HEK-Blue cells, ODN2006 5 nM.
Setting [5] is: read-out: TLR8 IC50, HEK-Blue cells, R848 15.9 μM.
Setting [6] is: HEK-Blue cells, gardiquimod 7.5 μM.

Read-outs that look alike come from different tables or passages of the source.

Chain of human TLR8 (Q9NR97 27-1041): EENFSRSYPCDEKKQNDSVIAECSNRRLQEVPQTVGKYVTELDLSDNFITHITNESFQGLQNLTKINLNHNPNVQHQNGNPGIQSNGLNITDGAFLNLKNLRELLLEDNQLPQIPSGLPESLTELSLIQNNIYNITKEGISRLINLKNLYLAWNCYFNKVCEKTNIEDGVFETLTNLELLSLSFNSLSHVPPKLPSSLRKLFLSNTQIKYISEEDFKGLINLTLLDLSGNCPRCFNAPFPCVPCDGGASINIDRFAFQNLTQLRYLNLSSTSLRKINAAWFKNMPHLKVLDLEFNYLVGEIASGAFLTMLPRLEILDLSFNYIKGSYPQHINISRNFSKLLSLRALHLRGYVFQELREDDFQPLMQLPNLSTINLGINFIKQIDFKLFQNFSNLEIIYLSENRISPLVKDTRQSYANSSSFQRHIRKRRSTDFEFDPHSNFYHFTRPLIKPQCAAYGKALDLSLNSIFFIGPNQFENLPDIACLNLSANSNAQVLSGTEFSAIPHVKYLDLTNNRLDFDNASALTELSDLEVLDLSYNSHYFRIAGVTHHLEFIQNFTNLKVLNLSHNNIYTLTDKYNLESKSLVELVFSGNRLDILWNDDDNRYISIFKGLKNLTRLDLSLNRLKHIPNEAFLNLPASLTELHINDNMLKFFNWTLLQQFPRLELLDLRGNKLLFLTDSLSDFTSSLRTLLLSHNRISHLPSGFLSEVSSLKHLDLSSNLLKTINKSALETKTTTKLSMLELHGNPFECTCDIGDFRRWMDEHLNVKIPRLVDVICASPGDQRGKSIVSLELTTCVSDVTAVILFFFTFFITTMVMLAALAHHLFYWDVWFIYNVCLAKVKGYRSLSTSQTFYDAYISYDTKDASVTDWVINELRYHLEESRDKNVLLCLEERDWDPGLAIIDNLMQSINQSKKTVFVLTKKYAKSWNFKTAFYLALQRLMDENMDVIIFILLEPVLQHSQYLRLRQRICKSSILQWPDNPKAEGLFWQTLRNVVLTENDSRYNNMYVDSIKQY
Chain of human TLR9 (Q9NR96 26-1032): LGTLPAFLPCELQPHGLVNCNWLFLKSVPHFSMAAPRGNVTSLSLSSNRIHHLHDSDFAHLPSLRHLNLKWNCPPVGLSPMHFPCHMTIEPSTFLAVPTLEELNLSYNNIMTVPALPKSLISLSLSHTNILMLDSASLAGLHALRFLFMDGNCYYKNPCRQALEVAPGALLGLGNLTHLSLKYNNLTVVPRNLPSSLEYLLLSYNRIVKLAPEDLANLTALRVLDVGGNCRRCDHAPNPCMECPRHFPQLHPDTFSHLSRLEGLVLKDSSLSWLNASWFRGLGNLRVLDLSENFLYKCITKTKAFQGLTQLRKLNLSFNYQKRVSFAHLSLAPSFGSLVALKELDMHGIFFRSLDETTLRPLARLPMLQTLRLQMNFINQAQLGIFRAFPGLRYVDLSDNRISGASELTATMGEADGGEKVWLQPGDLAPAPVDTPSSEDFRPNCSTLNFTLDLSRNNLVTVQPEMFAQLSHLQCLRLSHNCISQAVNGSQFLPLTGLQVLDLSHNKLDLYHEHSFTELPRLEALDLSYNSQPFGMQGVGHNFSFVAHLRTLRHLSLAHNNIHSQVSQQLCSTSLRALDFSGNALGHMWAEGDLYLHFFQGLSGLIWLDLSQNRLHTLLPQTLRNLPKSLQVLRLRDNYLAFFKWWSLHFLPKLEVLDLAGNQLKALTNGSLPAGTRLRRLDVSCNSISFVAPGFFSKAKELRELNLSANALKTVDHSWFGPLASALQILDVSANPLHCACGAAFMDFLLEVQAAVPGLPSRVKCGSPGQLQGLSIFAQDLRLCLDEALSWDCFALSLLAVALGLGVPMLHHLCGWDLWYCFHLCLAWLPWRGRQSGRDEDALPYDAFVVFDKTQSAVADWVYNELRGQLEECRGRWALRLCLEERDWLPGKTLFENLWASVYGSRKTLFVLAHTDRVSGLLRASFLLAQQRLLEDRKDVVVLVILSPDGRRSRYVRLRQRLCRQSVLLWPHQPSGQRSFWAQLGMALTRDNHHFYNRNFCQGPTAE
Experimental for human TLR8: TLR7/8/9 Inhibition Reporter Assays
Briefly, cells are seeded into Greiner 384 well plates (15000 cells per well for TLR7, 20,000 for TLR8 and 25,000 for TLR9) and then treated with test compounds in DMSO to yield a final dose response concentration range of 0.05 nM-50 μM. […] After a 22 hour incubation at 37° C., 5% CO2, SEAP levels are determined with the addition of HEK-Blue™ Detection reagent (Invivogen), a cell culture medium that allows for detection of SEAP, according to manufacturer's specifications. The percent inhibition is determined as the % reduction in the HEK-Blue signal present in wells treated with agonist plus DMSO alone compared to wells treated with a known inhibitor.

`Cc1cc(-c2[nH]c3ccc(C4CCN(CC(=O)N(C)C(C)(C)C)CC4)cc3c2C(C)C)cc(C)n1` [Example 250, N-(tert-butyl)-2-(4-(2-(2,6-dimethylpyridin-4-yl)-3-isopropyl-1H-indol-5-yl)piperidin-1-yl)-N-methylacetamide]: the IC50 on human TLR9 (setting [1]) turned out to be 1200 nM; on human TLR8 (setting [2]), 36.4 nM; against human TLR7 (setting [3]), 11.7 nM.

As for `Cc1cc(-c2[nH]c3ccc(C4CCNCC4)cc3c2C(C)C)c(C)c(C)n1` [Example 39, 3-isopropyl-5-(piperidin-4-yl)-2-(2,3,6-trimethylpyridin-4-yl)-1H-indole], the figures for the IC50 on human TLR9 (setting [1]), at human TLR8 (setting [2]) and on human TLR7 (setting [3]) were 955 nM, 22.3 nM and 7.2 nM, respectively.

In the case of `Cc1cc(-c2[nH]c3ccc(C4CCN(C(=O)CCCN(C)C)CC4)cc3c2C(C)C)cc(C)n1` [Example 111, 4-(dimethylamino)-1-(4-(2-(2,6-dimethylpyridin-4-yl)-3-isopropyl-1H-indol-5-yl)piperidin-1-yl)butan-1-one], the figures for the IC50 at human TLR9 (setting [1]), at human TLR8 (setting [2]) and against human TLR7 (setting [3]) were 12900 nM, 255 nM and 75.9 nM, respectively.

With `Cc1cc(-c2[nH]c3ccc(C4CCN(C(=O)C5(C(F)(F)F)CC5)CC4)cc3c2C(C)C)ccn1` [Example 605, (4-(3-isopropyl-2-(2-methylpyridin-4-yl)-1H-indol-5-yl)piperidin-1-yl)(1-(trifluoromethyl)cyclopropyl)methanone], the IC50 on human TLR9 (setting [1]) amounted to 14300 nM; at human TLR8 (setting [2]), 124 nM; against human TLR7 (setting [3]) it was 77.7 nM.

Regarding `CCc1c(-c2ccnc(OC)c2)[nH]c2ccc(C3CCN(C4CCCN(C5CCCC5)CC4)CC3)cc12` (stereo not drawn) [Example 793, 5-(1-(1-cyclopentylazepan-4-yl)piperidin-4-yl)-3-ethyl-2-(2-methoxypyridin-4-yl)-1H-indole], the IC50 at human TLR9 (setting [1]) amounted to 252 nM; on human TLR8 (setting [2]), 29.6 nM; at human TLR7 (setting [3]), 371 nM.

As for `Cc1cc(-c2[nH]c3ccc(C4CCN(CC(=O)N5CCC(C)CC5)CC4)cc3c2C(C)C)cc(C)n1` [Example 269, 2-(4-(2-(2,6-dimethylpyridin-4-yl)-3-isopropyl-1H-indol-5-yl)piperidin-1-yl)-1-(4-methylpiperidin-1-yl)ethan-1-one], the IC50 is 227 nM at human TLR9 (setting [1]), 19.8 nM on human TLR8 (setting [2]) and 3.7 nM against human TLR7 (setting [3]).

As to `Cc1cc(-c2[nH]c3ccc(C4CCN(C(=O)CN5CCN(CCO)CC5)CC4)cc3c2C(C)C)cc(C)n1` [Example 171, 1-(4-(2-(2,6-dimethylpyridin-4-yl)-3-isopropyl-1H-indol-5-yl)piperidin-1-yl)-2-(4-(2-hydroxyethyl)piperazin-1-yl)ethan-1-one], the IC50 on human TLR9 (setting [1]) was found to be 542 nM; at human TLR8 (setting [2]), 18.3 nM; on human TLR7 (setting [3]) it was 2.6 nM.

In the case of `Cc1cc(-c2[nH]c3ccc(C4CCN(C5CCOCC5)CC4)cc3c2C(C)C)cc(C)n1` [Example 450, 2-(2,6-dimethylpyridin-4-yl)-3-isopropyl-5-(1-(tetrahydro-2H-pyran-4-yl)piperidin-4-yl)-1H-indole], the half-maximal inhibitory concentration (IC50) on human TLR9 (setting [1]) turned out to be 572 nM; on human TLR8 (setting [2]), 7.9 nM; at human TLR7 (setting [3]), 7.8 nM.

For `CNCCN1CCC(c2ccc3[nH]c(-c4ccncc4OC)c(C)c3c2)CC1` [Example 754, 2-(4-(2-(3-methoxypyridin-4-yl)-3-methyl-1H-indol-5-yl)piperidin-1-yl)-N-methylethan-1-amine], the IC50 at human TLR9 (setting [1]) was 325 nM; on human TLR8 (setting [2]), 27.5 nM; on human TLR7 (setting [3]), 5860 nM.

With `Cc1cc(-c2[nH]c3ccc(C4CCN(C(=O)CNC5(C)CC5)CC4)cc3c2C(C)C)cc(C)n1` [Example 360, 1-(4-(2-(2,6-dimethylpyridin-4-yl)-3-isopropyl-1H-indol-5-yl)piperidin-1-yl)-2-((1-methylcyclopropyl)amino)ethan-1-one], the concentration for half-maximal inhibition (IC50) on human TLR9 (setting [1]) was found to be 795 nM; on human TLR8 (setting [2]) it was 15.8 nM; at human TLR7 (setting [3]) it was 4 nM.

For `CCc1c(-c2ccnc(C)c2)[nH]c2ccc(C3CCN(C(=O)C4(C)CCNCC4)CC3)cc12` [Example 626, (4-(3-ethyl-2-(2-methylpyridin-4-yl)-1H-indol-5-yl)piperidin-1-yl)(4-methylpiperidin-4-yl)methanone], the 50% inhibitory concentration (IC50) at human TLR9 (setting [1]) was found to be 169 nM; on human TLR8 (setting [2]), 53.5 nM; on human TLR7 (setting [3]), 62.6 nM.

As to `Cc1cc(-c2[nH]c3ccc(C4CCN(C(=O)C5CC(=O)N(C(C)(C)C)C5)CC4)cc3c2C(C)C)ccn1` (stereo not drawn) [Example 613, 1-(tert-butyl)-4-(4-(3-isopropyl-2-(2-methylpyridin-4-yl)-1H-indol-5-yl)piperidine-1-carbonyl)pyrrolidin-2-one], the results for the IC50 at human TLR9 (setting [1]), on human TLR8 (setting [2]) and against human TLR7 (setting [3]) were 7630 nM, 206 nM and 55.1 nM, respectively.

Take `Cc1cc(-c2[nH]c3ccc(C4CCN(CC(=O)N5CCC6(CC5)COC6)CC4)cc3c2C(C)C)cc(C)n1` [Example 286, 2-(4-(2-(2,6-dimethylpyridin-4-yl)-3-isopropyl-1H-indol-5-yl)piperidin-1-yl)-1-(2-oxa-7-azaspiro[3.5]nonan-7-yl)ethan-1-one]: the IC50 at human TLR9 (setting [1]) worked out at 261 nM; on human TLR8 (setting [2]), 14 nM; against human TLR7 (setting [3]), 6.2 nM.

For `Cc1cc(-c2[nH]c3ccc(C4CCN(C(=O)CN(C)CCC#N)CC4)cc3c2C(C)C)c(F)cn1` [Example 679, 3-((2-(4-(2-(5-fluoro-2-methylpyridin-4-yl)-3-isopropyl-1H-indol-5-yl)piperidin-1-yl)-2-oxoethyl)(methyl)amino)propanenitrile], the IC50 at human TLR9 (setting [1]) worked out at 4380 nM; on human TLR8 (setting [2]), 19.8 nM; against human TLR7 (setting [3]), 12.7 nM.

As for `Cc1cc(-c2[nH]c3ccc(C4CCN(Cc5ccccn5)CC4)cc3c2C(C)C)cc(C)n1` [Example 431, 2-(2,6-dimethylpyridin-4-yl)-3-isopropyl-5-(1-(pyridin-2-ylmethyl)piperidin-4-yl)-1H-indole], the IC50 was found to be 457 nM on human TLR9 (setting [1]), 6.7 nM on human TLR8 (setting [2]) and 8.4 nM on human TLR7 (setting [3]).

For `Cc1cc(-c2[nH]c3ccc(C4CCN(C(=O)C(=O)N5CCN(C)CC5)CC4)cc3c2C(C)C)cc(C)n1` [Example 856, 1-(4-(2-(2,6-dimethylpyridin-4-yl)-3-isopropyl-1H-indol-5-yl)piperidin-1-yl)-2-(4-methylpiperazin-1-yl)ethane-1,2-dione], the IC50 at human TLR9 (setting [4]) stood at 832 nM; on human TLR8 (setting [5]) it was 30.6 nM; on human TLR7 (setting [6]), 2.9 nM.

`Cc1cc(-c2[nH]c3ccc(C4CCN(C(=O)C5CCOCC5)CC4)cc3c2C(C)C)cc(C)n1` [Example 198, (4-(2-(2,6-dimethylpyridin-4-yl)-3-isopropyl-1H-indol-5-yl)piperidin-1-yl)(tetrahydro-2H-pyran-4-yl)methanone]: the concentration for half-maximal inhibition (IC50) was 30800 nM on human TLR9 (setting [1]), 104 nM at human TLR8 (setting [2]) and 8.9 nM at human TLR7 (setting [3]).

For `Cc1cc(-c2[nH]c3ccc(C4CCN(C(=O)CC#N)CC4)cc3c2C(C)C)ccn1` [Example 616, 3-(4-(3-isopropyl-2-(2-methylpyridin-4-yl)-1H-indol-5-yl)piperidin-1-yl)-3-oxopropanenitrile], the IC50 on human TLR9 (setting [1]) was found to be 32900 nM; on human TLR8 (setting [2]), 121 nM; on human TLR7 (setting [3]) it was 33.7 nM.

As for `Cc1cc(-c2[nH]c3ccc(C4CCN(CC(C)(C)O)CC4)cc3c2C(C)C)cc(C)n1` [Example 848, 1-(4-(2-(2,6-dimethylpyridin-4-yl)-3-isopropyl-1H-indol-5-yl)piperidin-1-yl)-2-methylpropan-2-ol], the values for the IC50 at human TLR9 (setting [4]), at human TLR8 (setting [5]) and at human TLR7 (setting [6]) were 398 nM, 1.7 nM and 2.3 nM, respectively.

Take `CC(=O)N1CCC(c2ccc3[nH]c(-c4cc(C)nc(C5CC5)c4)c(C(C)C)c3c2)CC1` [Example 504, 1-(4-(2-(2-cyclopropyl-6-methylpyridin-4-yl)-3-isopropyl-1H-indol-5-yl)piperidin-1-yl)ethan-1-one]: the 50% inhibitory concentration (IC50) at human TLR9 (setting [1]) worked out at 33900 nM; on human TLR8 (setting [2]), 638 nM; at human TLR7 (setting [3]), 64.2 nM.

Regarding `Cc1cc(-c2[nH]c3cc(F)c(C4CCN(CC(=O)N(C)C)CC4)cc3c2C(C)C)c(C)cn1` [Example 835, 2-(4-(2-(2,5-dimethylpyridin-4-yl)-6-fluoro-3-isopropyl-1H-indol-5-yl)piperidin-1-yl)-N,N-dimethylacetamide], the IC50 on human TLR9 (setting [4]) worked out at 1950 nM; on human TLR8 (setting [5]), 3.4 nM; against human TLR7 (setting [6]), 2.9 nM.

On to `Cc1cc(-c2[nH]c3ccc(C4CCN(C5COC5)CC4)cc3c2C(C)C)ccn1` [Example 711, 3-isopropyl-2-(2-methylpyridin-4-yl)-5-(1-(oxetan-3-yl)piperidin-4-yl)-1H-indole], for which the IC50 at human TLR9 (setting [1]) was determined as 2160 nM; at human TLR8 (setting [2]), 11.2 nM; on human TLR7 (setting [3]), 11 nM.

As for `Cc1cc(-c2[nH]c3ccc(C4CCN(CC(=O)NCC(C)(C)O)CC4)cc3c2C(C)C)cc(C)n1` [Example 268, 2-(4-(2-(2,6-dimethylpyridin-4-yl)-3-isopropyl-1H-indol-5-yl)piperidin-1-yl)-N-(2-hydroxy-2-methylpropyl)acetamide], the IC50 at human TLR9 (setting [1]) amounted to 416 nM; on human TLR8 (setting [2]), 7.2 nM; against human TLR7 (setting [3]), 3 nM.

As to `CCc1c(-c2ccnc(-c3noc(N)n3)c2)[nH]c2ccc(C3CCNCC3)cc12` [Example 65, 3-(4-(3-ethyl-5-(piperidin-4-yl)-1H-indol-2-yl)pyridin-2-yl)-1,2,4-oxadiazol-5-amine], the results for the IC50 on human TLR9 (setting [1]), at human TLR8 (setting [2]) and on human TLR7 (setting [3]) were 1630 nM, 550 nM and 2180 nM, respectively.

As to `Cc1cc(-c2[nH]c3ccc(C4CCN(CC(=O)NCC5CCCO5)CC4)cc3c2C(C)C)cc(C)n1` (stereo not drawn) [Example 266, 2-(4-(2-(2,6-dimethylpyridin-4-yl)-3-isopropyl-1H-indol-5-yl)piperidin-1-yl)-N-((tetrahydrofuran-2-yl)methyl)acetamide], the figures for the IC50 on human TLR9 (setting [1]), at human TLR8 (setting [2]) and against human TLR7 (setting [3]) were 522 nM, 10.8 nM and 3.2 nM, respectively.

In general, IC50 refers to the midpoint of a concentration-inhibition curve.
